Source: US20220409593A1 (ARKUDA THERAPEUTICS, priority 2019, published 2022)

Test system: secreted mouse PGRN
Test: progranulin induction cellular assay (PGRN assay, ELISA-based readout)
Settings: Mus musculus, progranulin secreted into cell culture medium, cells named in method: mouse primary microglia, primary cortical neurons, BV-2
Method: Cellular Assays: To measure the efficacy of compounds, a progranulin induction cellular assay in mouse primary microglia (pMG), primary cortical neurons, and BV-2 cell lines is used. BV-2 cells are split the day before plating into a 96well plate format at approximately 80%. Cells should be plated the day before and allowed for 1 hour attachment period and for 16 hour incubation. Levels of progranulin secreted into the cell culture medium or retained in the cell lysate can be quantified using an ELISA-based readout and measurement of secreted mouse PGRN in the medium was assessed by the methodology published by Ghidoni et al. 2012. Standard ELISA kits to measure PGRN are available from vendors such as Adipogen, R&D, and Biovendor.
Table D below presents the results of a PGRN assay as described above.

EC50 [nM] | SMILES
1030 | CN1CCCC2(CN=C(N3CCc4ccccc4[C@@H]3c3cccc(F)c3F)O2)C1 (mixture of isomers) [Compound 3042]
5080 | CN1CCC[C@]2(CN=C(N3CCc4ccccc4[C@@H]3c3cc(F)c(F)c(F)c3)O2)C1 (single isomer, unassigned) [Compound 3002]
4280 | CN1CCC[C@@]2(CN=C(N3CCc4ccccc4[C@@H]3c3cc(F)c(F)c(F)c3)O2)C1 (single isomer, unassigned) [Compound 3003]
> 10000 | CN1CCC[C@@]2(CN=C(N3CCc4ccccc4[C@H]3c3cc(F)c(F)c(F)c3)O2)C1 (single isomer, unassigned) [Compound 3005]
370 | CN1CCC[C@@]2(CN=C(N3CCc4ccccc4[C@@H]3c3cccc(F)c3)O2)C1 (single isomer, unassigned) [Compound 3007]
> 10000 | CN1CCC[C@]2(CN=C(N3CCc4ccccc4[C@H]3c3cccc(F)c3)O2)C1 (single isomer, unassigned) [Compound 3008]
6390 | CN1CCC[C@]2(CN=C(N3CCc4ccccc4[C@@H]3c3cc(F)cc(F)c3)O2)C1 (single isomer, unassigned) [Compound 3010]
7640 | CN1CCC[C@@]2(CN=C(N3CCc4ccccc4[C@@H]3c3cc(F)cc(F)c3)O2)C1 (single isomer, unassigned) [Compound 3011]
> 10000 | CN1CCC[C@]2(CN=C(N3CCc4ccccc4[C@H]3c3cc(F)cc(F)c3)O2)C1 (single isomer, unassigned) [Compound 3012]
1590 | CN1CCC[C@@]2(CN=C(N3CCc4ccccc4[C@H]3c3cc(F)cc(F)c3)O2)C1 (single isomer, unassigned) [Compound 3013]
1680 | CN1CCC[C@]2(CN=C(N3CCc4ccccc4[C@@H]3c3ccc(F)cc3F)O2)C1 (single isomer, unassigned) [Compound 3014]
880 | CN1CCC[C@@]2(CN=C(N3CCc4ccccc4[C@@H]3c3ccc(F)cc3F)O2)C1 (single isomer, unassigned) [Compound 3015]
4490 | CN1CC[C@@H](F)[C@]2(CN=C(N3CCc4ccccc4[C@@H]3c3ccc(F)cc3)O2)C1 (single isomer, unassigned) [Compound 3045]
3370 | CN1CCC(F)[C@]2(CN=C(N3CCc4ccccc4[C@@H]3c3ccc(F)cc3)O2)C1 (single isomer, unassigned) [Compound 3046]
15 | Fc1ccc([C@H]2c3ccccc3CCN2C2=NC[C@]3(CCNC3)O2)cc1 (single isomer, unassigned) [Compound 3050]
250 | Fc1ccc([C@H]2c3ccccc3CCN2C2=N[C@]3(CCCNC3)CO2)cc1 (single isomer, unassigned) [Compound 3053]
110 | Fc1ccc([C@H]2c3ccccc3CCN2C2=N[C@@]3(CCCNC3)CO2)cc1 (single isomer, unassigned) [Compound 3054]
208 | Fc1ccc([C@H]2c3ccccc3CCN2C2=NC[C@H]([C@@H]3CCNC3)O2)cc1 (single isomer, unassigned) [Compound 3063]
84.7 | Fc1ccc([C@H]2c3ccccc3CCN2C2=NCC([C@H]3CCNC3)O2)cc1 (single isomer, unassigned) [Compound 3064]
244 | Fc1ccc([C@H]2c3ccccc3CCN2C2=NC[C@@H]([C@H]3CCNC3)O2)cc1 (single isomer, unassigned) [Compound 3065]

EC50 [nM] | SMILES
55 | Fc1ccc([C@H]2c3ccccc3CCN2C2=NC[C@@H]([C@@H]3CCNC3)O2)cc1 (single isomer, unassigned) [Compound 3066]
109 | Fc1ccc([C@H]2c3ccccc3CCN2C2=NCC(C3CNC3)O2)cc1 (single isomer, unassigned) [Compound 3069]
96.6 | Fc1ccc([C@H]2c3ccccc3CCN2C2=NC[C@@H](C3CNC3)O2)cc1 (single isomer, unassigned) [Compound 3070]
429 | Fc1ccc([C@H]2c3ccccc3CCN2C2=N[C@H]([C@@H]3CCNC3)CO2)cc1 (single isomer, unassigned) [Compound 3071]
330 | Fc1ccc([C@H]2c3ccccc3CCN2C2=N[C@H]([C@H]3CCNC3)CO2)cc1 (single isomer, unassigned) [Compound 3072]
66.9 | Fc1ccc([C@H]2c3ccccc3CCN2C2=N[C@@H]([C@H]3CCNC3)CO2)cc1 (single isomer, unassigned) [Compound 3073]
338 | Fc1ccc([C@H]2c3ccccc3CCN2C2=N[C@@H]([C@@H]3CCNC3)CO2)cc1 (single isomer, unassigned) [Compound 3074]
222 | Fc1ccc([C@H]2c3ccccc3CCN2C2=NC[C@H]([C@@H]3CCCNC3)O2)cc1 (single isomer, unassigned) [Compound 3075]
> 10000 | Fc1ccc([C@H]2c3ccccc3CCN2C2=NC[C@H]([C@H]3CCCNC3)O2)cc1 (single isomer, unassigned) [Compound 3076]
475 | Fc1ccc([C@H]2c3ccccc3CCN2C2=NC[C@@H]([C@H]3CCCNC3)O2)cc1 (single isomer, unassigned) [Compound 3077]
127 | N[C@H]1CC[C@]2(CN=C(N3CCc4ccccc4[C@@H]3c3ccc(F)cc3)O2)C1 (single isomer, unassigned) [Compound 3078]
236 | N[C@@H]1CC[C@]2(CN=C(N3CCc4ccccc4[C@@H]3c3ccc(F)cc3)O2)C1 (single isomer, unassigned) [Compound 3079]
110 | N[C@H]1CC[C@@]2(CN=C(N3CCc4ccccc4[C@@H]3c3ccc(F)cc3)O2)C1 (single isomer, unassigned) [Compound 3080]
119 | N[C@@H]1CC[C@@]2(CN=C(N3CCc4ccccc4[C@@H]3c3ccc(F)cc3)O2)C1 (single isomer, unassigned) [Compound 3081]
757 | N[C@H]1CCC[C@]12CN=C(N1CCc3ccccc3[C@@H]1c1ccc(F)cc1)O2 (single isomer, unassigned) [Compound 3086]
612 | Fc1ccc([C@H]2c3ccccc3CCN2C2=N[C@@H](C3CCNCC3)CO2)cc1 (single isomer, unassigned) [Compound 3133]
312 | Fc1ccc([C@H]2c3ccccc3CCN2C2=N[C@H](C3CCNCC3)CO2)cc1 (single isomer, unassigned) [Compound 3134]
481 | Fc1ccc([C@H]2c3ccccc3CCN2C2=NC[C@@H]([C@@H]3CCCNC3)O2)cc1 (single isomer, unassigned) [Compound 3149]
266 | CN1CCC[C@@H]([C@@H]2CN=C(N3CCc4ccccc4[C@@H]3c3ccc(F)cc3)O2)C1 (single isomer, unassigned) [Compound 3150]
3100 | CN1CCC[C@@H]([C@H]2CN=C(N3CCc4ccccc4[C@@H]3c3ccc(F)cc3)O2)C1 (single isomer, unassigned) [Compound 3151]

SMILES | EC50 [nM]
Fc1cc(F)cc([C@H]2c3ccccc3CCN2C2=NC[C@@]3(CN4CCC3CC4)O2)c1 (racemic) [Compound 3036] | 3750
Fc1ccc([C@H]2c3ccccc3CCN2C2=NC[C@]3(CN4CCC3CC4)O2)cc1 (single isomer, unassigned) [Compound 3000] | 250
Fc1ccc([C@H]2c3ccccc3CCN2C2=NC[C@@]3(CN4CCC3CC4)O2)cc1 (single isomer, unassigned) [Compound 3001] | 100
Fc1ccc([C@H]2c3ccccc3CCN2C2=NC[C@@]3(CN4CCC3CC4)O2)c(F)c1 (single isomer, unassigned) [Compound 3016] | 860
Fc1ccc([C@H]2c3ccccc3CCN2C2=NC[C@]3(CN4CCC3CC4)O2)c(F)c1 (single isomer, unassigned) [Compound 3017] | 260
Fc1cccc([C@@H]2c3ccccc3CCN2C2=NC[C@@]3(CN4CCC3CC4)O2)c1F (single isomer, unassigned) [Compound 3018] | > 10000
Fc1cccc([C@H]2c3ccccc3CCN2C2=NC[C@]3(CN4CCC3CC4)O2)c1F (single isomer, unassigned) [Compound 3019] | 300
Fc1ccc([C@H]2c3ccccc3CCN2C2=NC[C@]3(CN4CCC3(F)CC4)O2)cc1 (single isomer, unassigned) [Compound 3033] | 2380
Fc1ccc([C@H]2c3ccccc3CCN2C2=NO[C@@]3(CN4CCC3(F)CC4)O2)cc1 (single isomer, unassigned) [Compound 3034] | 450
c1ccc([C@H]2c3ccccc3CCN2C2=NC[C@]3(CN4CCC3CC4)O2)cc1 (single isomer, unassigned) [Compound 3040] | 1130
c1ccc([C@H]2c3ccccc3CCN2C2=NC[C@@]3(CN4CCC3CC4)O2)cc1 (single isomer, unassigned) [Compound 3041] | 1720
Fc1ccc([C@H]2c3ccccc3CCN2C2=N[C@]3(CO2)CN2CCC3CC2)cc1 (single isomer, unassigned) [Compound 3057A] | 231
Fc1ccc([C@H]2c3ccccc3CCN2C2=N[C@@]3(CO2)CN2CCC3CC2)cc1 (single isomer, unassigned) [Compound 3057B] | 126

Same assay, conditions: progranulin secreted into cell culture medium, cells named in method: mouse primary microglia, primary cortical neurons, BV-2

EC50 [nM] | SMILES
> 10000 | CN1CCC[C@]2(CN=C(N3CCc4ccccc4[C@@H]3c3cc(F)c(F)c(F)c3)O2)C1 (single isomer, unassigned) [Compound 3004]
1000 | CN1CCC[C@]2(CN=C(N3CCc4ccccc4[C@@H]3c3cccc(F)c3)O2)C1 (single isomer, unassigned) [Compound 3006]
7020 | CN1CCC[C@]2(CN=C(N3CCc4ccccc4[C@@H]3c3cccc(F)c3)O2)C1 (single isomer, unassigned) [Compound 3009]
